Values quoted from earlier work, collected in patent US20210236604A1, “THERAPEUTIC TREATMENT FOR NEUROTROPHIC KERATOPATHY” (priority 2017, published 2021).

Legend:
[1] = tested on: experimentally-induced superficial skin wounds; details: diabetic and non-diabetic individuals; Greenway 1999; cited from earlier work
[2] = tested on: sub-basal plexus corneal nerves; details: diabetic mice; Chen 2013; cited from earlier work
[3] = tested on: decubitus ulcers; details: Van Ort 1976; cited from earlier work
[4] = tested on: corneal ulcers; details: systemic administration; Aynsley 1945; cited from earlier work
[5] = tested on: corneal abrasions; details: diabetic rats, cited from earlier work
[6] = tested on: corneal epithelium wound healing; details: with substance-P; Nishida 2009; cited from earlier work

Substance	healing of experimentally-induced superficial skin wounds [1]	loss of sub-basal plexus corneal nerves [2]	healing of decubitus ulcers [3]	healing of corneal ulcers [4]	wound healing after corneal abrasions ([5]; Zagon 2007, Klocek 2009)	corneal sensation ([5]; Zagon 2007)	corneal epithelium wound healing [6]
insulin [topical insulin]	improve healing	slow the loss	improve healing	improved healing of corneal ulcers	improves wound healing	improves corneal sensation	–
Insulin-like growth factor-1 [IGF-1]	–	–	–	–	–	–	act synergistically with substance-P to promote corneal epithelium wound healing
